From US7884117B2, “Carbonylamino pyrrolopyrazoles, potent kinase inhibitors” (Pfizer Inc., priority 2005, dated 2011) come the findings set out here.

Where “and” joins values, the source holds several entries; their conditions need not be identical. Identical values can stand only once. Entries after “also recorded” stand apart in the source; their conditions may differ.

Series [1] deals with T1, PAK4 kinase activity in whole cells (TR-293-KDG, modified HEK 293) (Homo sapiens, UniProt O96013).
T1 construct: engineered to overexpress both GEF-H1b and the kinase domain (KD) of PAK4; expressed in transfected cells; host or cells: TR-293-KDG (modified HEK 293, Trex system, Invitrogen)
T1 sequence (O96013 321-572 limits assumed): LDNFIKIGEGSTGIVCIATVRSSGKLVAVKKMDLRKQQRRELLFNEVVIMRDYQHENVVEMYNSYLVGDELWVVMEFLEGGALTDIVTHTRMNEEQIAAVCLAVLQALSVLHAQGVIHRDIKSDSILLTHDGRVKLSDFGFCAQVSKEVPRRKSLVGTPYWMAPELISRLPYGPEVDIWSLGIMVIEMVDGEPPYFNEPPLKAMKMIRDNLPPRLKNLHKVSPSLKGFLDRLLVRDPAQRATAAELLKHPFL
Description: PAK4 cellular assay: sandwich ELISA of PAK4-dependent phosphorylation of GEF-H1b in TR-293-KDG cells. Particulars: 3-hour exposure. In kind it is cell-based. For orientation: ELISA stands for enzyme-linked immunosorbent assay.
Description: A sandwich ELISA method was used to measure the PAK4 kinase activity in whole cells. The level of PAK4-dependent phosphorylation of GEF-H1b can be determined by monitoring the binding of a phosphospecific antibody to GEF-H1b. […] The KD of PAK4 is inducible in this cell line by tetracycline (Trex system, Invitrogen). […] To establish a phosphorylation event on GEF-HL, cells are induced with doxycycline to express the PAK4 KD. […] Candidate substance effect is measured as the ability to block this phosphorylation event.
ELISA plate was prepared by pre-coating the plates with a capture antibody (α-HA-tag mouse monoclonal antibody), blocked with BSA, and washed in 0.1% tween 20 in tris-buffered saline (TBST). […] Cells were then lysed with a modified RIPA buffer supplemented with protease inhibitors. […] Between all subsequent steps plates were washed 4 times with TBST. Detection antibody (recognizing the phospho-specific eptitope on GEF-H1b) was added for 1 hour, followed by addition of an enzyme linked goat α-rabbit secondary antibody for 45 minutes. […] EC50 values were calculated by sigmoid curve fitting using a four-parameter analysis.

The target in series [2] is T2, PAK4 Kinase domain (PAK4 KD) (Homo sapiens, UniProt O96013).
T2 construct: Cloning, expression, and purification of recombinant PAK4 Kinase domain (PAK4 KD); His tag (pET28a(+)/pET24a(+), Ni-NTA purification) (N, cleaved yes); GST (pGST4.5, glutathione column) (N, cleaved yes); made in house; host or cells: E. coli BL21(DE3)
T2 sequence (O96013 321-572 limits assumed): as above
Put plainly: PAK4 kinase domain enzymatic assay (PK/LDH-coupled, Ki). In kind it is biochemical. The note with it: PAK4 Kinase Domain.

Series [3] deals with HCT116 human colorectal carcinoma tumor xenografts. Description: Tumor growth inhibition and tumor growth delay of HCT116 xenografts in athymic mice. In kind it is in vivo. Particulars: for Tumor growth inhibition (TGI) % TGImax d39 / Tumor growth delay T-C1250 mm3: oral gavage; for Tumor growth inhibition (TGI) % TGImax d39: day 39, vs vehicle; for Tumor growth delay T-C1250 mm3: evaluation size 1250 mm3. How it is done:
Material and preparation: The HCT116 cell line was obtained from American Type Culture Collection (ATCC, Bethesda, Md.). Cells were grown as monolayers in McCoy's media each supplemented with 10% FBS (each from Life Technologies, Inc., Bethesda, Md.) and maintained at 37° C. in a humidified atmosphere at 5% CO2. Tumor cells for implantation into athymic mice were harvested near confluence by incubation with 0.05% Trypsin-EDTA. Cells were pelleted at 450×g for 5-10 minutes and the cell pellets were re-suspended in serum-free McCoy's medium supplemented with 50% matrigel. Tumor cells (1×10^6 cells/animal) were implanted s.c. into the hindflank region of each mouse on day 0 and allowed to grow to the designated size prior to the administration of compound for each experiment.
Tumor growth inhibition: Treatment was initiated when tumors were approximately 200 mm3 in size. Compound of Example 2 or vehicle (methyl cellulose, MC) was administered as an oral gavage daily or every other day at 10 mL/kg. Tumors were measured using Vernier calipers, and tumor volumes were calculated utilizing the formula length×width2×0.4. Tumor volume was measured on the indicated days, with the median tumor volume indicated for each group of 12 animals; median±SEM. At the end of the study, the maximum percent tumor growth inhibition was calculated as 100×(tumor volumefinal−tumor volumeinitial) for Compound 1f Example 2-treated group/(tumor volumefinal−tumor volumeinitial) for vehicle group on day 39 and tumor growth delay was calculated as median […] when median tumor volume reached 1250 mm^3.
Tumor growth delay: Treatment with Compound of Example 2 began on day 11 when tumors reached a volume of ˜200 mm^3 and continued for 28 days until the control tumors reached evaluation size (1250 mm^3). Tumor measurement continued until treated tumors reached evaluation size (1250 mm^3) in order to assess tumor growth delay. Compound of Example 2 was administered to tumor-bearing mice by oral gavage as a solution in MC in 10 mL/kg volume and compared with vehicle alone administered in the same volume.

For `CN(C)C[C@@H](OC(=O)N1Cc2c(NC(=O)c3ccc(F)cc3)n[nH]c2C1(C)C)c1ccccc1` [Example 2, (1S)-2-(dimethylamino)-1-phenylethyl 3-[(4-fluorobenzoyl)amino]-6,6-dimethyl-4,6-dihydropyrrolo[3,4-c]pyrazole-5(1H)-carboxylate], the EC50 – broadly, the concentration that produces a half-maximal response – in series [1] came out at 9.7 nM. For the same compound, the Ki (in general, a dissociation constant, usually derived from enzyme kinetics or from competition with a known ligand) in series [2] stood at 16.7 nM. Moreover, in series [3] (50 mg/kg QD), the “Tumor growth inhibition (TGI) % TGImax d39” value turned out to be 50% and the “Tumor growth delay T-C1250 mm3” value amounted to 12.2 days. For the same compound, in series [3] (75 mg/Kg/QOD), the “Tumor growth inhibition (TGI) % TGImax d39” value was 37% and 36.6%; the “Tumor growth delay T-C1250 mm3” value came to 9.8 days. The “in vivo tumor growth inhibition/delay (in words)” value in series [3] (HCT116 xenografts in athymic mice, oral) was “showed in vivo tumor growth inhibition; also recorded: inhibited/delayed growth”. For the same compound, in series [3] (throughout the 28 day treatment cycle, oral), the “general health and body weight of treated mice” value was “generally appeared healthy and continued to gain weight”.
As to `CN(C)C[C@@H](NC(=O)N1Cc2c(NC(=O)C3CCC3)n[nH]c2C1(C)C)c1ccccc1` [Example 53, 3-[(cyclobutylcarbonyl)amino]-N-[(1S)-2-(dimethylamino)-1-phenylethyl]-6,6-dimethyl-4,6-dihydropyrrolo[3,4-c]pyrazole-5(1H)-carboxamide], the EC50 in series [1] was 28 nM. This compound also registered a Ki in series [2] of 210 nM.
`CN(C)C[C@@H](NC(=O)N1Cc2c(NC(=O)[C@@H]3C[C@H]3c3ccccc3)n[nH]c2C1(C)C)c1ccccc1` [Example 56, N-[(1S)-2-(dimethylamino)-1-phenylethyl]-6,6-dimethyl-3-({[trans-2-phenylcyclopropyl]carbonyl}amino)-4,6-dihydropyrrolo[3,4-c]pyrazole-5(1H)-carboxamide]: a half-maximal effect in series [1] (EC50) was put at 37.1 nM. Besides, the Ki in series [2] turned out to be 6.9 nM.
`CN(C)C[C@@H](OC(=O)N1Cc2c(NC(=O)c3ccc(F)cc3F)n[nH]c2C1(C)C)c1ccccc1` [Example 4, (1S)-2-(dimethylamino)-1-phenylethyl 3-[(2,4-difluorobenzoyl)amino]-6,6-dimethyl-4,6-dihydropyrrolo[3,4-c]pyrazole-5(1H)-carboxylate] displayed an EC50 in series [1] of 14.6 nM. In addition, the affinity in series [2] corresponds to a Ki of 68 nM.
`CN(C)C[C@@H](NC(=O)N1Cc2c(NC(=O)c3cscn3)n[nH]c2C1(C)C)c1ccccc1` [Example 72, N-[(1S)-2-(dimethylamino)-1-phenylethyl]-6,6-dimethyl-3-[(1,3-thiazol-4-ylcarbonyl)amino]-4,6-dihydropyrrolo[3,4-c]pyrazole-5(1H)-carboxamide] showed an EC50 in series [1] of 362 nM. The affinity in series [2] corresponds to a Ki of 93.8 nM.
Regarding `CC(C)N(C)C[C@@H](OC(=O)N1Cc2c(NC(=O)c3ccc(F)cc3)n[nH]c2C1(C)C)c1ccccc1` [Example 40, (1S)-2-[isopropyl(methyl)amino]-1-phenylethyl 3-[(4-fluorobenzoyl)amino]-6,6-dimethyl-4,6-dihydropyrrolo[3,4-c]pyrazole-5(H)-carboxylate], a half-maximal effect in series [1] (EC50) was put at 152 nM. Moreover, in series [2], the inhibition constant Ki is 64.9 nM.
`CN(C)C[C@H](Cc1ccccc1)OC(=O)N1Cc2c(NC(=O)c3ccccc3F)n[nH]c2C1(C)C` [Example 31, (1S)-1-benzyl-2-(dimethylamino)ethyl 3-[(2-fluorobenzoyl)amino]-6,6-dimethyl-4,6-dihydropyrrolo[3,4-c]pyrazole-5(1H)-carboxylate] had an EC50 in series [1] of 230 nM. This compound also registered a Ki in series [2] of 858 nM.
For `CO[C@@H](C)C(=O)Nc1n[nH]c2c1CN(C(=O)O[C@H](CN(C)C)c1ccccc1)C2(C)C` [Example 90, (S)-2-(dimethylamino)-1-phenylethyl 3-((S)-2-methoxypropanamido)-6,6-dimethylpyrrolo[3,4-c]pyrazole-5(1H,4H,6H)-carboxylate], the EC50 in series [1] is 4 nM. In series [2], this compound gave a Ki of 251 nM.
For `COc1ccc(CC(=O)Nc2n[nH]c3c2CN(C(=O)N[C@H](CN(C)C)c2ccccc2)C3(C)C)cc1` [Example 55, N-[(1S)-2-(dimethylamino)-1-phenylethyl]-3-{[(4-methoxyphenyl)acetyl]amino}-6,6-dimethyl-4,6-dihydropyrrolo[3,4-c]pyrazole-5(1H)-carboxamide], a half-maximal response in series [1] (EC50) required 148 nM. Further, in series [2], affinity was put at a Ki of 13.6 nM.
As to `CN(C)C[C@@H](OC(=O)N1Cc2c(NC(=O)c3ccccc3F)n[nH]c2C1(C)C)c1ccccn1` [Example 26, (1R)-2-(dimethylamino)-1-pyridin-2-ylethyl 3-[(2-fluorobenzoyl)amino]-6,6-dimethyl-4,6-dihydropyrrolo[3,4-c]pyrazole-5(1H)-carboxylate], it took 244 nM to reach a half-maximal effect in series [1] (EC50). The compound further gave a Ki in series [2] of 278 nM.
As to `CN(C)CC(OC(=O)N1Cc2c(NC(=O)c3ccc(F)cc3F)n[nH]c2C1(C)C)c1ccccc1` (centres unmarked) [Example 23, 2-(dimethylamino)-1-phenylethyl 3-[(2,4-difluorobenzoyl)amino]-6,6-dimethyl-4,6-dihydropyrrolo[3,4-c]pyrazole-5(1H)-carboxylate], in series [1], the response was half-maximal at 3.9 nM (EC50). The Ki in series [2] was found to be 122 nM.
Take `CN(C)C[C@@H](OC(=O)N1Cc2c(NC(=O)Cc3ccc(F)cc3)n[nH]c2C1(C)C)c1ccccc1` [Example 18, (1S)-2-(dimethylamino)-1-phenylethyl 3-{[(4-fluorophenyl)acetyl]amino}-6,6-dimethyl-4,6-dihydropyrrolo[3,4-c]pyrazole-5(1H)-carboxylate]: the EC50 in series [1] amounted to 28.3 nM. In series [2], this compound came in with a Ki of 23.3 nM.
Compound `CN(C)C[C@@H](OC(=O)N1Cc2c(NC(=O)c3ccc(F)cc3)n[nH]c2C1(C)C)c1ccccn1` [Example 25, (1R)-2-(dimethylamino)-1-pyridin-2-ylethyl 3-[(4-fluorobenzoyl)amino]-6,6-dimethyl-4,6-dihydropyrrolo[3,4-c]pyrazole-5(1H)-carboxylate] displayed an EC50 in series [1] of 153 nM. The affinity in series [2], expressed as Ki, was 78.6 nM.
`CN(C)C[C@@H](OC(=O)N1Cc2c(NC(=O)Cc3ccc(F)cc3)n[nH]c2C1(C)C)c1ccccn1` [Example 28, (1R)-2-(dimethylamino)-1-pyridin-2-ylethyl 3-{[(4-fluorophenyl)acetyl]amino}-6,6-dimethyl-4,6-dihydropyrrolo[3,4-c]pyrazole-5(1H)-carboxylate] had a half-maximal effective concentration (EC50) in series [1] of 280 nM. In addition, the affinity in series [2] corresponds to a Ki of 73.2 nM.
Regarding `CN(C)C[C@@H](OC(=O)N1Cc2c(NC(=O)c3ccccc3)n[nH]c2C1(C)C)C1CCCCC1` [Example 32, (1S)-1-cyclohexyl-2-(dimethylamino)ethyl 3-(benzoylamino)-6,6-dimethyl-4,6-dihydropyrrolo[3,4-c]pyrazole-5(1H)-carboxylate], the midpoint of the response in series [1], the EC50, lay at 162 nM. In series [2], the affinity, expressed as Ki, was 57.1 nM.
For the compound `CN(C)C[C@@H](OC(=O)N1Cc2c(NC(=O)C3CCCC3)n[nH]c2C1(C)C)c1ccccc1` [Example 12, (1S)-2-(dimethylamino)-1-phenylethyl 3-[(cyclopentylcarbonyl)amino]-6,6-dimethyl-4,6-dihydropyrrolo[3,4-c]pyrazole-5(1H)-carboxylate], the EC50 in series [1] is 3.27 nM. The same compound returned an inhibitory constant (Ki) in series [2] of 95.5 nM.
`CN(C)C[C@@H](NC(=O)N1Cc2c(NC(=O)Cc3ccc(F)cc3)n[nH]c2C1(C)C)c1ccccc1` [Example 54, N-[(1S)-2-(dimethylamino)-1-phenylethyl]-3-{[(4-fluorophenyl)acetyl]amino}-6,6-dimethyl-4,6-dihydropyrrolo[3,4-c]pyrazole-5(1H)-carboxamide] had an EC50 in series [1] of 353 nM. In series [2], this compound gave a Ki of 41 nM.
Take `CC(C)C[C@@H](CN(C)C)OC(=O)N1Cc2c(NC(=O)c3ccccc3)n[nH]c2C1(C)C` [Example 35, (1S)-1-[(dimethylamino)methyl]-3-methylbutyl 3-(benzoylamino)-6,6-dimethyl-4,6-dihydropyrrolo[3,4-c]pyrazole-5(1H)-carboxylate]: the response in series [1] was half-maximal at 216 nM (EC50). This compound came in with a Ki in series [2] of 92.3 nM.
For the compound `CC1(C)c2[nH]nc(NC(=O)c3ccc(F)cc3)c2CN1C(=O)OC(CN1CCCC1)c1ccccc1` (centres unmarked) [Example 43, 1-phenyl-2-pyrrolidin-1-ylethyl 3-[(4-fluorobenzoyl)amino]-6,6-dimethyl-4,6-dihydropyrrolo[3,4-c]pyrazole-5(1H)-carboxylate], the midpoint of the response in series [1], the EC50, lay at 439 nM. The same compound had a Ki in series [2] of 58.1 nM.
